Source: patent US9447054B2, “Anticancer supplement agent including benzo[D]oxazol derivative as effective ingredient” (KOREA INSTITUTE OF RADIOLOGICAL & MEDICAL SCIENCES, priority 2014, dated 2016)

Key:
[1] = test system: lung cancer cell strain (H1299); assay: CCK-8 analysis after derivative plus doxorubicin (anticancer agent sensitivity); type: cell-based; conditions: 48 hours, FIG. 13
Description: In order to confirm whether the above-described benzo[d]oxazole derivative that increases the apoptotic effects of ROS also have such apoptotic effects when the benzo[d]oxazole derivative is used in combination with, other than radiation, an anticancer agent to produce ROS, the synthesized benzo[d]oxazole derivative was treated in combination with doxorubicin, which is an anticancer agent.
The lung cancer cell strain (H1299) was treated with each of the synthesized benzo[d]oxazole derivatives (Derivatives #1 to #10) for 2 hours in a concentration of 10 μM, and then, were treated with doxorubicin in a concentration of 150 nM. After 48 hours of the treatment, CCK-8 for the determination of cell viability was used to measure the lung cancer cells that were died by apoptosis.

[2] = test system: lung cancer cells (H1299); assay: ROS production by DCF-DA staining and FACS, combined with irradiation; type: cell-based
Description: The lung cancer cells (H1299) that were cultured in the same manner as in Example 1 were treated with dihydrodichlorofluorescein diacetate (DCF-DA, Sigma, USA) and were subjected to fluorescence staining. The stained cells were then treated with 2-(5-bromonaphthalene-1-yl)benzo[d]oxazole-5-amine (Derivative #1) for 2 hours in a concentration of 5 μM or 10 μM, and 5 Gy of irradiation. Afterwards, an increase in ROS production upon inhibition of Nrf2 was analyzed by FACS.
In addition, in order to confirmed whether the values measured by FACS analysis refer to the ROS production, the lung cancer cells (H1299) were treated with 2 mM of N-acetyl-L-cysteine (NAC), which is a ROS inhibitor, and then, were treated in combination with 2-(5-bromonaphthalene-1-yl)benzo[d]oxazole-5-amine (Derivative #1) in a concentration of 10 μM and irradiation. As a result, it was confirmed that the ROS production was inhibited.

Nrf2 = assay: ARE-pGL3 (Nrf2-responsive) luciferase reporter analysis in tBHQ-treated lung cancer cells; type: cell-based
Description: Lung cancer cells (H1299) purchased from American Type Culture Collection (ATCC, CRL-5803™) were cultured in Dulbecco's modified Eagle's medium (DMEM) enriched with 10% fetal bovine serum (FBS), 100 μg/ml of streptomycin, and 100 unit/ml of penicillin, under conditions of 5% CO2 and a temperature of 37° C.
Then, the cells were transformed by using Lipofectamine 2000 (In vitrogen, Life technologies, USA) (i.e., a plasmid transfection reagent used in DMEM) so that an antioxidant response element (ARE)-pGL3 luciferase plasmid to which an Nrf2 transcription factor can bind was introduced to the cells, according to the manufacturer's instructions.
About 20,000 of the transformed cells were inoculated in each well of a 96-well plate, and then, the cells were cultured for 24 hours under the same conditions described above. Afterwards, tertiary butylhydroquinone (tBHQ) that activates ARE was added to each well. Accordingly, it was confirmed that activity of luciferase was increased at least about 3 times as large as activity of luciferase in cells that were not treated with tBHQ.
Next, the tBHQ-treated cells were additionally treated with 2-(5-bromonaphthalene-1-yl)benzo[d]oxazole-5-amine (ChemBridge, cat#5721754, San Diego, Calif., USA) (Derivative #1) in concentration of 1 μM, 5 μM, and 10 μM, and then, were incubated for 18 hours. […]

[3] = test system: lung cancer cells (H1299); assay: CCK-8 cell viability analysis (cytotoxicity of the derivative alone); type: cell-based; conditions: 1 μM, 5 μM and 10 μM, FIG. 2
Source text: Here, in order to confirm that the inhibitory activity of luciferase was caused by an Nrf2 inhibitor, rather than by apoptosis of the cells, cell counting kit-8 (CCK-8) (Dojindo, Japan) for the determination of cell viability and a spectroscopic device (Labsystems, USA) were used to measure absorbance values of the cells at a wavelength of 480 nm.
Here, in order to confirm that the inhibitory activity of luciferase was caused by Nrf2 inhibitors, i.e., Derivative #2 to #10, rather than by apoptosis of the cells, CCK-8 (Dojindo, Japan) for the determination of cell viability and a spectroscopic device (Labsystems, USA) were used to measure absorbance values of the cells at a wavelength of 480 nm.

Nrf2 protein = target: T1, Nrf2 protein (Homo sapiens, UniProt Q16236); assay: Western blot of Nrf2 protein in tBHQ-treated lung cancer cells; type: cell-based; conditions: 5 μM or 10 μM, 2 hours, FIG. 5
T1 construct: endogenous in cells
T1 sequence (Q16236 1-605): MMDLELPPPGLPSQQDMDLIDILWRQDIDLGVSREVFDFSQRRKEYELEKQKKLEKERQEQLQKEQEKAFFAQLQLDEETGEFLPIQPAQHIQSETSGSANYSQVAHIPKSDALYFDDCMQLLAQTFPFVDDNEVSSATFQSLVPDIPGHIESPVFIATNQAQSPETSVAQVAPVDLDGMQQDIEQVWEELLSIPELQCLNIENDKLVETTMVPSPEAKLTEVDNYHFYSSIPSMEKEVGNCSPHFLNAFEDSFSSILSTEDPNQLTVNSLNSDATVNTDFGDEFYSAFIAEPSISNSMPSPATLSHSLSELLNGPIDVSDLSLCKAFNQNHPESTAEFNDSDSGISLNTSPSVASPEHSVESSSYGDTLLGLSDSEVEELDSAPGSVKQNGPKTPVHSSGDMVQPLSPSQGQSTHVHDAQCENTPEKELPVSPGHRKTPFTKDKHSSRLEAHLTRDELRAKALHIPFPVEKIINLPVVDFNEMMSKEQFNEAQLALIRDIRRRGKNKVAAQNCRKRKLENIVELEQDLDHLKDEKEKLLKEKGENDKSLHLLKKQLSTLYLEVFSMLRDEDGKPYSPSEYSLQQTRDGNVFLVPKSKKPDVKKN
Description: (§1) By using a western blot, it was confirmed whether 2-(5-bromonaphthalene-1-yl)benzo[d]oxazole-5-amine (Derivative #1), which is a Nrf2 inhibitor, has targeted a Nrf2 protein and its downstream antioxidant enzyme heme oxygenase (HO)-1, based on the inhibitory activity of the ARE-pGL3 luciferase.
(§2) The lung cancer cells were treated with 2-(5-bromonaphthalene-1-yl)benzo[d]oxazole-5-amine (Derivative #1) in a concentration of about 5 μM or about 10 μM, and 2 hours later, the protein expression was analyzed to measure amounts of Nrf2 and HO-1 proteins, which were increased by tBHQ treatment.
(§3) First, the cells treated with 2-(5-bromonaphthalene-1-yl)benzo[d]oxazole-5-amine (Derivative #1) were obtained, and then, cytosolic fractions were obtained therefrom by using a method commonly used in the art.
(§4) The cytosolic fractions were separated by electrophoresis using 10% gradient SDS-PAGE, and then, were transferred to a nitrocellulose membrane (BioRad, Hercules, Calif., USA). The membrane was blocked with 5% skim milk, and then, a reaction with primary antibodies, e.g., anti-Nrf2 (Abcam, USA) and an HO-1 antibody (Oncogene Research Products, USA), was allowed. […]

heme oxygenase (HO)-1 = assay: Western blot of HO-1 protein in tBHQ-treated lung cancer cells; type: cell-based; conditions: 5 μM or 10 μM, 2 hours, FIG. 5
Description: as §1, §2, §3, §4

[4] = test system: lung cancer cells (H1299); assay: Colony-forming assay with gamma irradiation, lung cancer cells; type: cell-based; conditions: H1299, 1 μM to 10 μM for 2 hours, gamma radiation, 7 days, FIG. 8
Description: (§5) Lung cancer cells (H1299, ATCC, CRL-5803™), brain cancer cells (U87MG, ATCC, HTB-14™ human glioblastoma), breast cancer cells (MDA-MB231, ATCC, HTB-26™ human breast adenocarcinoma), and colorectal cancer cells (HCT116, ATCC, CCL-247™ human colorectal carcinoma) were each inoculated in each well of a 96-well plate containing Rosewell Park Memorial Institute medium (RPMI) 1640 enriched with 10% FBS, 100 μg/ml of streptomycin, and 100 unit/ml of penicillin. Then, these cells were each treated with 2-(5-bromonaphthalene-1-yl)benzo[d]oxazole-5-amine (Derivative #1) for 2 hours in a concentration of 1 μM to 10 μM, were irradiated using gamma radiation according to radiation dose, and were cultured for 7 days under conditions of 5% CO2 and a temperature of 37° C. The cultured cells were washed out with phosphate buffered saline (PBS), and then, were stained with a mixture of 1% methylene blue and 100% methanol. Afterwards, a number of colony-forming cells was counted, and all the treatment above were repeatedly performed 3 times.

[5] = test system: brain cancer cells (U87MG); assay: Colony-forming assay with gamma irradiation, brain cancer cells; type: cell-based, human; conditions: 1 μM to 10 μM for 2 hours, gamma radiation, 7 days, FIG. 9
Description: as §5

[6] = test system: breast cancer cells (MDA-MB231); assay: Colony-forming assay with gamma irradiation, breast cancer cells; type: cell-based, human; conditions: MDA-MB231, 1 μM to 10 μM for 2 hours, gamma radiation, 7 days, FIG. 10
Description: as §5

[7] = test system: colorectal cancer cells (HCT116); assay: Colony-forming assay with gamma irradiation, colorectal cancer cells; type: cell-based, human; conditions: HCT116, 1 μM to 10 μM for 2 hours, gamma radiation, 7 days, FIG. 11
Description: as §5

In the case of `COc1cccc2c1C(=O)c1c(O)c3c(c(O)c1C2=O)C[C@@](O)(C(=O)CO)C[C@@H]3O[C@H]1C[C@H](N)[C@H](O)[C@H](C)O1` [doxorubicin, reference compound], the “apoptotic cell death relative to control group” value ([1]; H1299, doxorubicin 150 nM only) is reported as “about 1.35 times”.
With `CC(=O)N[C@@H](CS)C(=O)O` [NAC, N-acetyl-L-cysteine, reference compound] the “ROS production after ROS inhibitor treatment” value ([2]; H1299, 2 mM NAC, then Derivative #1 10 μM plus irradiation) was “inhibited”.
With `Nc1ccc2oc(-c3cccc4c(Br)cccc34)nc2c1` [Derivative #1, 2-(5-bromonaphthalene-1-yl)benzo[d]oxazole-5-amine] the “inhibitory activity of ARE-responsive luciferase” value (Nrf2; tBHQ-treated H1299, 1 μM, 5 μM and 10 μM, 18 hours, FIG. 1) was “dependent upon concentration”, the “cytotoxicity (CCK-8 viability)” value [3] was “no cytotoxicity” and the “amount of Nrf2 protein increased by tBHQ treatment” value (Nrf2 protein) was “reduced depending on the concentration”. The “amount of HO-1 protein increased by tBHQ treatment” value (heme oxygenase (HO)-1) was “reduced depending on the concentration”, the “ROS production relative to 5 Gy of irradiation only” value ([2]; H1299, 5 μM for 2 hours plus 5 Gy irradiation) was “about 3.5 times” and the “ROS production relative to 5 Gy of irradiation only” value ([2]; H1299, 10 μM for 2 hours plus 5 Gy irradiation) was about 4.6 times. The “apoptotic effects on cancer cells by irradiation (colony-forming cells)” value (“apoptotic effects on cancer cells” below) [4] was “increased apoptotic effects”, the “apoptotic effects on cancer cells” value [5] was “increased apoptotic effects” and the “apoptotic effects on cancer cells” value [6] was “increased apoptotic effects”. The “apoptotic effects on cancer cells” value [7] was “increased apoptotic effects” and the “apoptotic cell death relative to control group” value ([1]; H1299, derivative 10 μM for 2 hours then doxorubicin 150 nM) was “about 3.7 times”.
`CC(C)(C)c1cc(O)ccc1O` [tBHQ, tertiary butylhydroquinone, reference compound] was tested, and the “activity of luciferase relative to cells not treated with tBHQ” value (Nrf2; ARE-pGL3 transformed H1299 cells, tBHQ added to each well) was “at least 3 times”.
